# Key:
# MK2 = biological target: T1, MK2 (Homo sapiens, UniProt P49137); experiment: MK2 radiometric kinase assay; assay type: biochemical
# T1 construct: purchased Millipore (IC50 Profiler Express / KinaseProfiler service)
# Source text: A commercial radiometric assay service was used to test the specificity and potency of MMI-0100 ([…]; SEQ ID NO: 1) by measuring its half maximal inhibitory concentrations (IC50). This quantitative assay measures how much MK2 inhibitor (MMI-0100; […] (SEQ ID NO: 1)) is needed to inhibit 50% of a given biological process or component of a process (i.e., an enzyme, cell, or cell receptor). Specifically, in these assays, a positively charged substrate is phosphorylated with a radiolabeled phosphate group from an ATP if the kinase is not inhibited by an inhibitor peptide. The positively charged substrate then is attracted to a negatively charged filter membrane, quantified with a scintillation counter, and compared to a 100% activity control. ATP concentrations within 15 μM of the apparent Km for ATP were chosen since an ATP concentration near the Km may allow for the kinases to have the same relative amount of phosphorylation activity. […]
# For the MK2 radiometric assay, 5-10 mU of MK2 was incubated with 50 mM Na b-glycerophosphate pH 7.5, 0.1 mM EGTA, 30 μM KKLNRTLSVA (SEQ ID NO: 34; a substrate peptide for MK2), 10 mM MgAcetate, and 10 μM of [y-^33P-ATP] in a final reaction volume of 25 μl. […] The washed P30 filtermat was dried and its radioactivity was measured by scintillation counter.
# IC50 values for inhibitor peptides were determined using Millipore's IC50 Profiler Express service. […]
# MKK6 = biological target: T2, MKK6 (Homo sapiens, UniProt P52564); experiment: MKK6 radiometric kinase assay; assay type: biochemical; details: peptide 100 μM
# T2 construct: purchased Millipore (KinaseProfiler service)
# T2 sequence (P52564 whole entry, species assumed): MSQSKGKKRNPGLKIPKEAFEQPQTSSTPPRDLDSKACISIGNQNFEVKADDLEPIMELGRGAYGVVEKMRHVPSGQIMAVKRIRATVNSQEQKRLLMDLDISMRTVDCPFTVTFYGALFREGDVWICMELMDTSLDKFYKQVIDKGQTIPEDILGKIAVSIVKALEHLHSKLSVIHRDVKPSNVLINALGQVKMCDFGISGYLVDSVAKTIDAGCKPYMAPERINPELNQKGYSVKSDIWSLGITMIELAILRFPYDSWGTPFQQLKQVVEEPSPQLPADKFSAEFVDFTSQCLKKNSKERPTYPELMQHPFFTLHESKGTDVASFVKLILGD
# Source text: A commercial radiometric assay service was used to test the specificity and potency of MMI-0100 ([…]; SEQ ID NO: 1) by measuring its half maximal inhibitory concentrations (IC50). This quantitative assay measures how much MK2 inhibitor (MMI-0100; […] (SEQ ID NO: 1)) is needed to inhibit 50% of a given biological process or component of a process (i.e., an enzyme, cell, or cell receptor). Specifically, in these assays, a positively charged substrate is phosphorylated with a radiolabeled phosphate group from an ATP if the kinase is not inhibited by an inhibitor peptide. The positively charged substrate then is attracted to a negatively charged filter membrane, quantified with a scintillation counter, and compared to a 100% activity control. ATP concentrations within 15 μM of the apparent Km for ATP were chosen since an ATP concentration near the Km may allow for the kinases to have the same relative amount of phosphorylation activity. The individual conditions for each radiometric assay are as follows.
# The reaction was initiated by adding the MgATP. After incubation for 40 minutes at room temperature, 5 μl of the incubation mix was used to initiate the p38MAPK radiometric assay described above.
# IC50 values for inhibitor peptides were determined using Millipore's IC50 Profiler Express service. The IC50 value was estimated from a 10-point curve of one-half log dilutions. […]
# [1] = test system: immortalized human pleural mesothelial cells (ATCC CRL-9444); experiment: IL-6 ELISA in TNF-α-stimulated mesothelial cells; assay type: cell-based
# Protocol: Expression of inflammatory cytokines was induced by applying 1 or 10 ng/ml of TNF-α to cultured mesothelial cells. Briefly, immortalized human pleural mesothelial cells (ATCC CRL-9444) were grown in Medium199 with Earle's BSS, 0.75 mM L-glutamine (Mediatech Inc., Manassas, Va.), 1.25 g/l sodium bicarbonate (Sigma), 3.3 nM epidermal growth factor (EGF) (MBL International, Woburn, Mass.), 40 nM hydrocortisone (Sigma), 870 nM insulin (MBL International), 20 mM HEPES (Sigma), trace elements mixture B (Mediatech Inc., Waltham, Mass.), 10% fetal bovine serum (FBS) (Hyclone), and 1% penicillin/streptomycin (Mediatech Inc., Waltham, Mass.). […] Human mesothelial cells were treated with two different concentrations (1 and 10 ng/mL) of TNF-α for 2, 6, 12, and 24 hours (data not shown). […] Without TNF-α stimulation, mesothelial cells made negligible amounts of IL-6. […] In subsequent experiments designed to determine whether the MMI-0100 peptide ([…]; SEQ ID NO: 1) could reduce TNF-α induced IL-6 expression, both 1 and 10 ng/mL of TNF-α were selected as stimuli. 10 ng/mL of TNF-α is regarded as more physiologically relevant for mesothelial cells.
# Prior to cytokine and/or inhibitor treatment, cells were allowed to acclimate in serum-free media consisting of only Medium199 with Earle's BSS, 0.75 mM L-glutamine, 1.25 g/l sodium bicarbonate, 20 mM HEPES, trace elements mixture B (Mediatech Inc., Waltham, Mass.), and 1% penicillin/streptomycin (Mediatech Inc., Waltham, Mass.) for 24 hours. […] Average concentration of IL-6 (pg/ml per 10^5 cells) at each time was determined by cytokine-specific ELISA.
# T1 sequence (P49137 whole entry, species assumed): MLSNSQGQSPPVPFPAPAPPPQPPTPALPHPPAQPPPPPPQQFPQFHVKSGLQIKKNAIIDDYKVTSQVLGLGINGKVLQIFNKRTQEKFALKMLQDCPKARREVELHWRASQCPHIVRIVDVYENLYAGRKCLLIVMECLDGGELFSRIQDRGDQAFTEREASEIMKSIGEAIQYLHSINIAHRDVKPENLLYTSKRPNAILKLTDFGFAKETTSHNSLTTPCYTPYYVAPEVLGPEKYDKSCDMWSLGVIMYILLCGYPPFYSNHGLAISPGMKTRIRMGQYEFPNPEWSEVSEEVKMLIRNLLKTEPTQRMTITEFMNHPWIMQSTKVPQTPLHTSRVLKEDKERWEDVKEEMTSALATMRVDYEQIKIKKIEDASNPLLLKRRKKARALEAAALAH
sequence,measurement,setting,value
YARAAARQARAKALARQLGVAA [MMI-0100],inhibition of MK2 activity,MK2; concentration used for specificity profiling (Table 2),> 95%
same,"Percent Activity, MK2",MK2; peptide 100 μM,<5%
same,"Percent Activity, MKK6",MKK6,50%
same,IL-6 expression,"[1]; TNF-α 1 ng/mL, MMI-0100 1000 or 3000 μM, 6, 12, 24 hours",reduced IL-6 expression to the levels at or below the untreated baseline
same,IL-6 expression,"[1]; TNF-α 10 ng/mL, 3000 μM, every time point",reduced IL-6 expression to the levels of the untreated baseline
same,IL-6 expression,"[1]; TNF-α 10 ng/mL, 6, 12, 24 hours",still effective in reducing IL-6 expression triggered by TNF-α

# Source: patent US20110288036A1, “Methods for Treating or Preventing Vascular Graft Failure” (priority 2010, published 2011)
